Results taken from patent US20040019121A1, “Protein prenyl transferase inhibitors in the treatment of neuroinflammatory disease” (priority 2000, published 2004).

Assays:
brain endothelial cells = experiment: Adhesion of peripheral lymph node T-lymphocytes to brain endothelia; type: cell-based, rat; conditions: 10 μM
Method: (§1) The immortalised Lewis rat brain endothelial cell line GP8/3.9 (Greenwood et al., 1996) was maintained in Ham's F-10 medium supplemented with 17.5% FCS, 7.5 μg/ml endothelial cell growth supplement, 80 μg/ml heparin, 2 mM glutamine, 0.5 μg/ml vitamin C, 100 U/ml penicillin and 100 μg/ml streptomycin.
Adhesion assays were carried out as previously described (Pryce et. al., 1994; Adamson et al., 1999). Briefly, peripheral lymph node-derived cells (PLNC) were isolated and T-lymphocytes obtained after purification on nylon wool columns. These cells which represent non-antigen activated T-lymphocytes are therefore non-migratory but highly adhesive when activated with the mitogen concanavalin A (Pryce et al., 1994, Greenwood and Calder 1993; Male et al., 1994 ). PLNC were activated for 24 h with type V concanavalin A, washed twice in HBSS, and cells labelled with 3 μCi [^3H]-deoxy glucose per 10^6 cells in HBSS for 90 min at 37° C. After washing the cells three times with HBSS they were resuspended in RPMI 1640 medium containing 10% FCS. Endothelial monolayers grown on 96 well plates were prepared by removing the culture medium and washing the cells four times with HBSS. 200 μl of [^3H]-labelled PLNC at a concentration of 1×10^6/ml were then added to each well and incubated at 37° C. for 1.5 h. In each assay, β-emissions from each of 6 replicate blank wells were determined to provide a value for the total amount of radioactivity added per well and to allow calculation of the specific activity of the cells. After incubation, non-adherent cells were removed with four separate washes from the four poles of the well with 37° C. HBSS as previously described (Pryce et al, 1994: Adamson et al., 1999). Adherent PLNC were lysed with 2% SDS, the lysate removed, scintillant added and radioactivity quantitated by spectrometry. Results are expressed as the means±SEM between groups determined by Student's t-test.

[1] = test system: brain endothelial cell monolayers (GP8/3.9); experiment: T-lymphocyte transendothelial migration through brain endothelial cell monolayers; type: cell-based, rat
Method: as §1
Lewis rat T-lymphocyte cell lines specific for purified myelin basic protein were prepared as previously described (Pryce et al, 1997). Briefly, lymph nodes were collected from bovine MBP-immunised rats and the T-lymphocytes propagated by periodically alternating antigen activation with IL-2 stimulation. The cell lines express the marker of the CD4^+ T cell subset, are CD45RC^low and recognise MBP in the molecular context of MHC class II determinants (Pryce et al, 1997).
The ability of the immortalised cells to support the transendothelial migration of antigen specific T-lymphocytes was determined using a well-characterised assay as described extensively elsewhere (Adamson et al., 1999 and http://www.ucl.ac.uk/ioo/video/ sequence.avi) Briefly, T-lymphocytes were added (2×10^5 cells/well) to 24 well plates containing endothelial cell monolayers. Lymphocytes were allowed to settle and migrate over a 4 h period. To evaluate the level of migration co-cultures were placed on the stage of a phase-contrast inverted microscope housed in a temperature controlled (37° C.), 5% CO2 gassed chamber (Zeiss, Herts, U.K.). A 200×200 μm field was randomly chosen and recorded for 10 min spanning the 4 h time point using a camera linked to a time-lapse video recorder. Recordings were replayed at 160× normal speed and lymphocytes identified and counted which had either adhered to the surface of the monolayer or that had migrated through the monolayer. Lymphocytes on the surface of the monolayer were identified by their highly refractive morphology (phase-bright) and rounded or partially spread appearance. In contrast cells that had migrated through the monolayer were phase-dark, highly attenuated and were seen to probe under the endothelial cells in a distinctive manner (Pryce et al, 1997; Adamson et al, 1999: Etienne et al, 2000). All other data were expressed as a percentage of the control migrations. A minimum of three independent experiments using a minimum of 6 wells per assay were performed. The results are expressed as the means±SEM and significant differences between groups determined by Student±s t-test.

[2] = mice, daily injections of 25 mg/kg i.p.; cited from earlier work
Rho protein = Rho protein association with brain endothelial cell membranes (Western blot); type: cell-based, rat; conditions: C3-transferase treatment of brain endothelial cells
Method: as §1
Ice-cold lysis buffer containing 10 mM Tris-HCl pH7.5, 5 mM MgCl2, 1 mM DTT and 1 mM PMSF was added to cells and incubated on ice for 10 min. Cells were subsequently homogenised and centrifuged at 5000 g for 10 min to remove nuclei. Supernatants were then centrifuged at 100,000 g in a Beckman Ultracentrifuge for 30 min to obtain crude membranes. Membrane pellets were washed with buffer containing 50 mM Tris-HCl pH7.5, 50 mM NaCl, 5 mM MgCl2, 1 mM DTT and 1 mM PMSF and re-centrifuged at 100,000 g for 30 min. Membrane pellets were then resuspended in sample buffer and proteins resolved on 12.5% SDS-PAGE gels. Proteins were electroblotted on nitrocellulose membranes and immunblotted with anti-Rho polyclonal antibody (Santa Cruz, Wilts, UK). Rho proteins within membrane fractions were visualised following incubation with a 1:15,000 dilution of goat anti-rabbit-HRP (Pierce, Chester, UK) and ECL development (Amersham, Bucks,UK).
Isoprenylation of Rho proteins are essential for their efficient association with cell membranes (Adamson et al, 1992).

[3] = 24 h treatment plus 90 min adhesion assay
[4] = 48 h treatment plus 90 min adhesion assay
[5] = 10 μM, brain EC treated 24 h prior to and during 4 h co-culture, mean±SEM
[6] = 10 μM, brain EC treated 48 h prior to and during 4 h co-culture, mean±SEM

In the case of `COC(=O)[C@H](CCSC)NC(=O)c1ccc(NC[C@@H](N)CS)cc1-c1ccccc1` [FTI-277], the “T-lymphocyte adhesion to brain endothelial cells” value (shortened to “T-lymphocyte adhesion”) (brain endothelial cells; [3]) is reported as “did not have any significant effect”, the “T-lymphocyte adhesion” value (brain endothelial cells; [4]) is reported as “did not have any significant effect” and the transendothelial lymphocyte migration [1, 5] is reported as “did not result in a significant alteration”. The transendothelial lymphocyte migration [1, 6] was 77.7±4.9 % of control migration and the “time required to obtain steady state plasma concentrations” value [2] was 3 days.
With `COC(=O)[C@H](CC(C)C)NC(=O)c1ccc(NC[C@@H](N)CS)cc1-c1cccc2ccccc12` [GGTI-298] the “T-lymphocyte adhesion” value (brain endothelial cells; [3]) was “did not have any significant effect”, the “T-lymphocyte adhesion” value (brain endothelial cells; [4]) was “did not have any significant effect” and the transendothelial lymphocyte migration [1, 5] was 73.5±6.0 % of control migration. The transendothelial lymphocyte migration [1, 6] was 51.6±3.1 % of control migration.
For C3 transferase, the “subcellular distribution of Rho proteins” value (Rho protein) was “did not affect” and the transendothelial lymphocyte migration ([1]; C3 transferase treatment of brain EC, n=12) was 18.4±4.1 % of control values.
